From publication PMC11212140, “Molecular Bidents with Two Electrophilic Warheads as a New Pharmacological Modality” (ACS Central Science, 2024)

What was measured:
[1] = test system: T1, PRP4; test: KiNativ profiling in H3255 cells; format: cell-based, human; conditions: 2.5 µM; Lys2; CNILHADIKPDNILVNESK
T1 construct: purchased ActivX Biosciences (KiNativ)

[2] = test system: EGFR^L858R/C775S Ba/F3 cells; test: Antiproliferation assay (CellTiter-Glo); format: cell-based; conditions: vs EGFR^L858R Ba/F3
Description: Figure S6 Dose-response curves for the indicated compounds in EGFRL858R, EGFRL858R/C797S, and EGFRL858R/C775S Ba/F3 cells following 72 h of treatment. Cell viability was assessed with CellTiter-Glo.
Data are presented as the mean ± SEM (n = 4). Representative data from three independent experiments
(1 picture or pasted object on this page, not shown here)
For infection of Ba/F3 cells, 2.5 mL of viral supernatant and 8 μg/mL polybrene was added to 2.5 million cells per well in six-well plates. The plate was centrifuged at 2500 rpm for 90 minutes at 37 °C for the spin infection. Then, virus-containing medium was removed 48 hours later and successfully infected cells were selected with the addition of 1 μg/mL puromycin to the medium.
After 3 days, cells were transferred into the fresh medium without IL-3 and puromycin. IL-3-independent transformed cells were maintained in RPMI medium 1640 supplemented with 10%
FBS. Expression of EGFR was examined by Western blot.
Immunoblotting and antibodies
(§1) Cells were lysed in RIPA buffer (150 mM NaCl, 1.0% IGEPAL® CA-630, 0.5% sodium deoxycholate, 0.1% SDS, 50 mM Tris, pH 8.0) (Sigma, Cat# R0278) with protease inhibitor and phosphatase inhibitor (Roche). The protein concentrations were measured by BCA analysis (Thermo Fisher Scientific, Cat # PI23225). […]
(§2) or IRDye 680RD goat anti-Mouse IgG (LICOR Biosciences , Cat # 926-68070) secondary antibodies at room temperature for 1 hour. The membranes were detected on Odyssey CLx system. […]
treatment. Cell viability was determined by using CellTiter-Glo (Promega #G7571) according to the manufacturer’s instructions, measuring luminescence using an Envision plate-reader (PerkinElmer Inc.). […]
After 6 hours treatment, cells were pelleted, washed with PBS once and lysed with IP lysis buffer (25mMTris-HCl pH 7.4, 150mM NaCl, 1 mM EDTA, 1% NP-40 and 5% glycerol) (Thermo Fisher Scientific, Cat#87788) containing protease/phosphatase inhibitor cocktail (Roche). The protein concentrations were measured by BCA analysis (Pierce). […]

[3] = test system: phosphorylation of EGFR, ERK1/2, and AKT; test: Immunoblot of EGFR signaling pathway in H3255 cells; format: cell-based, human; conditions: H3255, 6 h treatment
Description: (A) Dose–response curves for ZNL-0056 and osimertinib in H3255 cells following 72 h of treatment. Cell viability was assessed with CellTiter-Glo. Data are presented as the mean ± SEM (n = 4). Representative data from three independent experiments are shown. (B) Immunoblot assessment of the effect of ZNL-0056 on EGFR signaling pathway in H3255 cells after 6 h treatment. Representative blots from two independent experiments are shown. […] TEXT PRINTED IN THE PICTURE: (A) ZNL-0056: H3255: IC50 (nM): 471.3 | (A) Osimertinib: H3255: IC50 (nM): 27.76 […]
For infection of Ba/F3 cells, 2.5 mL of viral supernatant and 8 μg/mL polybrene was added to 2.5 million cells per well in six-well plates. The plate was centrifuged at 2500 rpm for 90 minutes at 37 °C for the spin infection. […]
as §1, §2

[4] = test system: panel of 468 human kinases; conditions: 1 μM
Description: KinomeScan profiling for ZNL-0056 at 1 μM against a panel of 468 human kinases. The results
for the binding interactions are reported as “% Ctrl”, where larger circles indicate stronger hits.
The selectivity score was defined as the ratio of the number of kinases inhibited to a specified
percentage versus the total number of kinases. For this experiment, specified percent inhibition

| Structure (SMILES) | Inhibition [1] | potency loss (shift) in the EGFR^L858R/C775S mutant [2] | concentration inhibiting phosphorylation of EGFR, ERK1/2, and AKT (as low as) [3] | selectivity score S (10) [4] |
| --- | --- | --- | --- | --- |
| C=CC(=O)Nc1cc(Nc2nccc(-c3cn(C)c4ccccc34)n2)c(OC)cc1N(C)CCN(C)C [Osimertinib, osimertinib, reference compound] | -3.8% | – | – | – |
| C=CC(=O)Nc1cc(C(=O)Nc2nc3cccc(C)c3n2[C@@H]2CCCCN(C(=O)C=C)C2)cs1 [ZNL-0056] | – | 2 fold | 0.1 µM | 0.05 |
